This note sets out measurements from ChEMBL document CHEMBL3588744, “Structure-Based Optimization of Naphthyridones into Potent ATAD2 Bromodomain Inhibitors” (J Med Chem, 2015).

SMILES strings stand for the structures. Converted amounts (≈) assume the structure as drawn.

Data set [1] addresses Tyrosine-protein kinase BAZ1B (Homo sapiens, UniProt Q9UIG0). The data set is described as follows: Binding affinity to BAZ1B in human HUT78 cells incubated for 45 mins by mass spectrometry based bromosphere chemoproteomic assay. The class given is cell-based.
The next data set addresses Protein polybromo-1 (Homo sapiens, UniProt Q86U86). The data set is described as follows: Binding affinity to PBRM1 in human HUT78 cells incubated for 45 mins by mass spectrometry based bromosphere chemoproteomic assay. In kind it is cell-based.
Data set [2] deals with Nucleosome-remodeling factor subunit BPTF (Homo sapiens, UniProt Q12830). The experiment in a line: Binding affinity to BPTF in human HUT78 cells incubated for 45 mins by mass spectrometry based bromosphere chemoproteomic assay. In kind it is cell-based.
Data set [3] addresses Bromodomain adjacent to zinc finger domain protein 2A (Homo sapiens, UniProt Q9UIF9). The data set is described as follows: Binding affinity to BAZ2A in human HUT78 cells incubated for 45 mins by mass spectrometry based bromosphere chemoproteomic assay. The class given is cell-based.
For data set [4], the target named is Transcription initiation factor TFIID subunit 1 (Homo sapiens, UniProt P21675). The data set is described as follows: Binding affinity to TAF1 in human HUT78 cells incubated for 45 mins by mass spectrometry based bromosphere chemoproteomic assay. The class given is cell-based.
Chain of Transcription initiation factor TFIID subunit 1 (P21675 whole entry): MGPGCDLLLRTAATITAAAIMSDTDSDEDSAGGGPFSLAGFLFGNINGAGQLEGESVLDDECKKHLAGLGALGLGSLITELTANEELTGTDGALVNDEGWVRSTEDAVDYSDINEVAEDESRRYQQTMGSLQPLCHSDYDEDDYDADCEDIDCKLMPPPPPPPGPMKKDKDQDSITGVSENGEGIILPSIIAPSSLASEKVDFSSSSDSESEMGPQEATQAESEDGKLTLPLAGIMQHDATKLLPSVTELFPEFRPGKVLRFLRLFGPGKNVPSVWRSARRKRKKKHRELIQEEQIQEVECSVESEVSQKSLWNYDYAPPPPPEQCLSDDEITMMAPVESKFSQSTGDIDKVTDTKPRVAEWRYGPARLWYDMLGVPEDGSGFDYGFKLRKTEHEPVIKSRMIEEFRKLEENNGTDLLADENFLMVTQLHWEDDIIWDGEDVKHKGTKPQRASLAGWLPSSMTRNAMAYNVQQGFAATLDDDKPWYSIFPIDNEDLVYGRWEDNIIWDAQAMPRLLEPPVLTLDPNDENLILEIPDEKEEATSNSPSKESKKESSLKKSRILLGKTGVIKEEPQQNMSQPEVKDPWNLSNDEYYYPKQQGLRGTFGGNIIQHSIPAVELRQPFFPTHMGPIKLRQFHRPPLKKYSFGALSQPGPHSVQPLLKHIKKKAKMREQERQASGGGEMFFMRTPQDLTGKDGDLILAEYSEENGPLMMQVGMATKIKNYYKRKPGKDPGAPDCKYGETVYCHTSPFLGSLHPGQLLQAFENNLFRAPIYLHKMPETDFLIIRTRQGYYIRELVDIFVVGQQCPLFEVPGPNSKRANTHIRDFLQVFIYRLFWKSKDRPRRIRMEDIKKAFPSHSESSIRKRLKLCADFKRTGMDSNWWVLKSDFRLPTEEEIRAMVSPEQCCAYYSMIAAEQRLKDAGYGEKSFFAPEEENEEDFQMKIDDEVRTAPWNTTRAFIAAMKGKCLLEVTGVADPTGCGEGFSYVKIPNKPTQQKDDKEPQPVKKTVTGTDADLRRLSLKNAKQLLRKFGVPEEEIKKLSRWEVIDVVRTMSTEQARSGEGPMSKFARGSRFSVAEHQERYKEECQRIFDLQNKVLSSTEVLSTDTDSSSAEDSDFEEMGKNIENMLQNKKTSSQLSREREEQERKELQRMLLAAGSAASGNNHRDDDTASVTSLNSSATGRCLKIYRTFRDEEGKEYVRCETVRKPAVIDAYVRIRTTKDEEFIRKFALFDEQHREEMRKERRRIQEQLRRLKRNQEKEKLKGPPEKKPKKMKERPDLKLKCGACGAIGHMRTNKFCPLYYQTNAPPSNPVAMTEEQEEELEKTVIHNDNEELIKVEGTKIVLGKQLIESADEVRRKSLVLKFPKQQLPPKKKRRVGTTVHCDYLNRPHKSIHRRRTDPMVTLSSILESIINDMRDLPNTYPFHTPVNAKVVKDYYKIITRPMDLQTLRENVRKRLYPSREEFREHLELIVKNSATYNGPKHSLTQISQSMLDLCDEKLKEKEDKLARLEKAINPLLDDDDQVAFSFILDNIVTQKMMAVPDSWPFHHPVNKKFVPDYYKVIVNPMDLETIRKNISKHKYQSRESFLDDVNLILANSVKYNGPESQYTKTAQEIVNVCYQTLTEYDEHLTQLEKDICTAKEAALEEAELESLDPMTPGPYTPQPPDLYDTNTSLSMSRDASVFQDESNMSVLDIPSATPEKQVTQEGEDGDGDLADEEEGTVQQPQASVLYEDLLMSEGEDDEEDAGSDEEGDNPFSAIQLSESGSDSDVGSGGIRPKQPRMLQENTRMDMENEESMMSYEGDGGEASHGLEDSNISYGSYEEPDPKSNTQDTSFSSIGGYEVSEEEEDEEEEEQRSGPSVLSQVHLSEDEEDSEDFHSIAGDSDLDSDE
The target in data set [5] is Histone acetyltransferase KAT2B (Homo sapiens, UniProt Q92831). The experiment in a line: Binding affinity to KAT2B in human HUT78 cells incubated for 45 mins by mass spectrometry based bromosphere chemoproteomic assay. In kind it is cell-based.
For a further data set, the target named is T1, Peregrin (Homo sapiens, UniProt P55201).
T1 sequence (P55201 whole entry): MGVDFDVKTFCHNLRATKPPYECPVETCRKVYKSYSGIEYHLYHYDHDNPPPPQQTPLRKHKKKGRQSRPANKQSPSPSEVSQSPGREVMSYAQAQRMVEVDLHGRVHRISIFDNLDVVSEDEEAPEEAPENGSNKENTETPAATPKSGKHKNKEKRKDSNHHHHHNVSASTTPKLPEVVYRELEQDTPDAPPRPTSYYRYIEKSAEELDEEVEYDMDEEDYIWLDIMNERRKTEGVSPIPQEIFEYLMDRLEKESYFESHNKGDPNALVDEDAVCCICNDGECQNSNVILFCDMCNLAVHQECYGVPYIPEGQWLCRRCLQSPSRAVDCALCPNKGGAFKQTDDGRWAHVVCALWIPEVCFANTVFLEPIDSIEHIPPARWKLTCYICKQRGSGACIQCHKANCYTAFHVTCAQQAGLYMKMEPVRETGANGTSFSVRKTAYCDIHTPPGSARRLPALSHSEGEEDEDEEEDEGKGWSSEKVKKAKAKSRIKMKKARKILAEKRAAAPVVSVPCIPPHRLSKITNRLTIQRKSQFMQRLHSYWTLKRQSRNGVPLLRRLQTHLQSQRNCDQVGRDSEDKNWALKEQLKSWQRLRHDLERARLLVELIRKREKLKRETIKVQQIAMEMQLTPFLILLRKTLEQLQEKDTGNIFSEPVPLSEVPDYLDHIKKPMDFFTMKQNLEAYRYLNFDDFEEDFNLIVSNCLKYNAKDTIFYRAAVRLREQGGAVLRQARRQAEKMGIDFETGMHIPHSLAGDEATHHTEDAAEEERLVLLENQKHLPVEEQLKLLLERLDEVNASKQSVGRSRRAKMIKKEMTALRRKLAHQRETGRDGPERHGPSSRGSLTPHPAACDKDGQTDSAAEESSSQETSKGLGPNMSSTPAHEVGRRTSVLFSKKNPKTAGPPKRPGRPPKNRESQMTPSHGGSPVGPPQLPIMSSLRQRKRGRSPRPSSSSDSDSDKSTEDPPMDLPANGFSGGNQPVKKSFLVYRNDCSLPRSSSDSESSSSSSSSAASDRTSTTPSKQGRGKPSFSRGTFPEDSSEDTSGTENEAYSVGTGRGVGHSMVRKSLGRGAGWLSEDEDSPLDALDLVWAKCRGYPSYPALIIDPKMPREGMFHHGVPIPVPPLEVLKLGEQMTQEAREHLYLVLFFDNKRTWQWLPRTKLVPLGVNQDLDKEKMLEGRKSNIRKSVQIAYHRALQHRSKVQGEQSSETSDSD
The experiment in a line: Binding affinity to BRPF1 in human HUT78 cells incubated for 45 mins by mass spectrometry based bromosphere chemoproteomic assay. The class given is cell-based.

For data set [6], the target named is Bromodomain-containing protein 2 (Homo sapiens, UniProt P25440). The experiment in a line: Binding affinity to BRD2 in human HUT78 cells incubated for 45 mins by mass spectrometry based bromosphere chemoproteomic assay. In kind it is cell-based.
Chain of Bromodomain-containing protein 2 (P25440 whole entry): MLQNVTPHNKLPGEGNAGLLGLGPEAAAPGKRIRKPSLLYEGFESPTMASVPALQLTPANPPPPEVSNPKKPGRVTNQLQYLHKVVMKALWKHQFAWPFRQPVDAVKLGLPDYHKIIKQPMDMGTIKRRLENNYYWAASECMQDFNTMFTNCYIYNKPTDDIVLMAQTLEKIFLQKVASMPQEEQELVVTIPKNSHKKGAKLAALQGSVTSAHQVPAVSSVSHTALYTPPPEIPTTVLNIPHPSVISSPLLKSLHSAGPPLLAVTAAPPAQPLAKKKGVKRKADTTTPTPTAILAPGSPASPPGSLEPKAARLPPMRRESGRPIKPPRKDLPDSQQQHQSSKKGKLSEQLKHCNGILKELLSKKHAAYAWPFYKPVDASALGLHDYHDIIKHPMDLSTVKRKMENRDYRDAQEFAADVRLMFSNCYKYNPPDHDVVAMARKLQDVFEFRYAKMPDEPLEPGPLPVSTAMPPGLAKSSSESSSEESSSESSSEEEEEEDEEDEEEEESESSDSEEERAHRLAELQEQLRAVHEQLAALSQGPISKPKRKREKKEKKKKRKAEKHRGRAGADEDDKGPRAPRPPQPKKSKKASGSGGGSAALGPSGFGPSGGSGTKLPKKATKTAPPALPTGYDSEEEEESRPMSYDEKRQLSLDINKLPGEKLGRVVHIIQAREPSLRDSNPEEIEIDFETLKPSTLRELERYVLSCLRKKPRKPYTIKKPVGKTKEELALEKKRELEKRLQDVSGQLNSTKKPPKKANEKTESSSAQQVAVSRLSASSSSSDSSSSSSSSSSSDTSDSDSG
In data set [7] the target is T2, Bromodomain testis-specific protein (Homo sapiens, UniProt Q58F21). The data set is described as follows: Binding affinity to BRDT in human HUT78 cells incubated for 45 mins by mass spectrometry based bromosphere chemoproteomic assay. In kind it is cell-based.
Data set [8] deals with Histone acetyltransferase KAT2A (Homo sapiens, UniProt Q92830). The data set is described as follows: Binding affinity to KAT2A in human HUT78 cells incubated for 45 mins by mass spectrometry based bromosphere chemoproteomic assay. In kind it is cell-based.
Data set [9] addresses Bromodomain-containing protein 7 (Homo sapiens, UniProt Q9NPI1). The experiment in a line: Binding affinity to BRD7 in human HUT78 cells incubated for 45 mins by mass spectrometry based bromosphere chemoproteomic assay. The class given is cell-based.
For data set [10], the target named is T3, Bromodomain-containing protein 3 (Homo sapiens, UniProt Q15059). The experiment in a line: Binding affinity to BRD3 in human HUT78 cells incubated for 45 mins by mass spectrometry based bromosphere chemoproteomic assay. In kind it is cell-based.
T3 sequence (Q15059 whole entry): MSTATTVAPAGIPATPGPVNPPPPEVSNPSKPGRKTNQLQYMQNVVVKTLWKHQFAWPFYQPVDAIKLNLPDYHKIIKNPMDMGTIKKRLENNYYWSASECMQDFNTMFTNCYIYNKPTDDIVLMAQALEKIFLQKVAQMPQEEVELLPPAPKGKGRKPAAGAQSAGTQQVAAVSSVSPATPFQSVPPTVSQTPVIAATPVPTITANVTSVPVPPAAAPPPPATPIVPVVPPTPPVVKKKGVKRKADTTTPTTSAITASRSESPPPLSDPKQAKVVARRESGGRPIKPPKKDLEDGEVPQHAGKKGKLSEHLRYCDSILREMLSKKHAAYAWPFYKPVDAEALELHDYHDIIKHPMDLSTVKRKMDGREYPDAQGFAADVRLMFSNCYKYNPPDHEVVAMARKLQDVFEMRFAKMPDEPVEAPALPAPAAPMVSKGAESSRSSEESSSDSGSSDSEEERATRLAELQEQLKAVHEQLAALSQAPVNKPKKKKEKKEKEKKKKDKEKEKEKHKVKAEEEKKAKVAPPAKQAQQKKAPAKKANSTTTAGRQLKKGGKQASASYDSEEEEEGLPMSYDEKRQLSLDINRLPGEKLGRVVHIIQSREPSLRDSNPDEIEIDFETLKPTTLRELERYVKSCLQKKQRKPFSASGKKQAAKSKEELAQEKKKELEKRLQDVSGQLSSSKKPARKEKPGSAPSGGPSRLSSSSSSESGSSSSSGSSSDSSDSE
For data set [11], the target named is T4, Bromodomain-containing protein 9 (Homo sapiens, UniProt Q9H8M2).
T4 sequence (Q9H8M2 whole entry): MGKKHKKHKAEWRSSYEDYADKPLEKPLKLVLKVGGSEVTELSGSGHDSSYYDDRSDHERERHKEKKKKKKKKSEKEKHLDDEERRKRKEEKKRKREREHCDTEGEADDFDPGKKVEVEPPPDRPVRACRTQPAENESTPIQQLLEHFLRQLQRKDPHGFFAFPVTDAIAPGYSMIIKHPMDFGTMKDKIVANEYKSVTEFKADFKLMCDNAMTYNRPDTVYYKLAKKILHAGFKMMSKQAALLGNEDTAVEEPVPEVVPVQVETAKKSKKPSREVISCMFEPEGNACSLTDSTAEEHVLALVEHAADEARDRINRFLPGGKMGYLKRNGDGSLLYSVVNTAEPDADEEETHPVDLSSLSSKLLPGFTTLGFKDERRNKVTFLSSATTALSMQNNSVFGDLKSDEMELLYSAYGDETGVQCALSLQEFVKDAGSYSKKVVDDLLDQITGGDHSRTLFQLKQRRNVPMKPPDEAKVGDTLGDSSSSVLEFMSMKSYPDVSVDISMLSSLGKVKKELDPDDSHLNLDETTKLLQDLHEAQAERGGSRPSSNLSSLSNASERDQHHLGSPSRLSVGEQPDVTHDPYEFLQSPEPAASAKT
The experiment in a line: Binding affinity to BRD9 in human HUT78 cells incubated for 45 mins by mass spectrometry based bromosphere chemoproteomic assay. In kind it is cell-based.

A short description of data set [12]: Distribution coefficient, log D of the compound at pH 7.4 by chromatographic method. The class given is physicochemical. Conditions: octanol/water.
A further data set in a line: physchem. Conditions: phosphate buffered saline, pH 7.4, solubility.
Data set [13] in a line: Permeability across phosphatidyl choline membrane at pH 7.4 after 3 hrs by HPLC with UV detection method. In kind it is ADME. The note with it: not told, read-out: permeability.
Data set [14] concerns the target T3, Bromodomain-containing protein 3. The experiment in a line: Binding affinity to BRD3 containing BD1 bromodomains (unknown origin) by TR-FRET assay.
Data set [15] has as its target T2, Bromodomain testis-specific protein. The data set is described as follows: Binding affinity to BRDt containing BD2 bromodomains (unknown origin) by TR-FRET assay.
For data set [16], the target named is Bromodomain-containing protein 4 (Homo sapiens, UniProt O60885, Y390A).
For data set [17], the target named is T3, Bromodomain-containing protein 3. The data set is described as follows: Binding affinity to BRD3 containing BD2 bromodomains (unknown origin) by TR-FRET assay.
The target in data set [18] is T5, Bromodomain-containing protein 4 (Homo sapiens, UniProt O60885). The data set is described as follows: Binding affinity to BRD4 containing BD1 bromodomains (unknown origin) by TR-FRET assay.
Data set [19] deals with T5, Bromodomain-containing protein 4. The data set is described as follows: Binding affinity to BRD4 containing BD2 bromodomains (unknown origin) by TR-FRET assay.

Chain of Protein polybromo-1 (Q86U86 whole entry): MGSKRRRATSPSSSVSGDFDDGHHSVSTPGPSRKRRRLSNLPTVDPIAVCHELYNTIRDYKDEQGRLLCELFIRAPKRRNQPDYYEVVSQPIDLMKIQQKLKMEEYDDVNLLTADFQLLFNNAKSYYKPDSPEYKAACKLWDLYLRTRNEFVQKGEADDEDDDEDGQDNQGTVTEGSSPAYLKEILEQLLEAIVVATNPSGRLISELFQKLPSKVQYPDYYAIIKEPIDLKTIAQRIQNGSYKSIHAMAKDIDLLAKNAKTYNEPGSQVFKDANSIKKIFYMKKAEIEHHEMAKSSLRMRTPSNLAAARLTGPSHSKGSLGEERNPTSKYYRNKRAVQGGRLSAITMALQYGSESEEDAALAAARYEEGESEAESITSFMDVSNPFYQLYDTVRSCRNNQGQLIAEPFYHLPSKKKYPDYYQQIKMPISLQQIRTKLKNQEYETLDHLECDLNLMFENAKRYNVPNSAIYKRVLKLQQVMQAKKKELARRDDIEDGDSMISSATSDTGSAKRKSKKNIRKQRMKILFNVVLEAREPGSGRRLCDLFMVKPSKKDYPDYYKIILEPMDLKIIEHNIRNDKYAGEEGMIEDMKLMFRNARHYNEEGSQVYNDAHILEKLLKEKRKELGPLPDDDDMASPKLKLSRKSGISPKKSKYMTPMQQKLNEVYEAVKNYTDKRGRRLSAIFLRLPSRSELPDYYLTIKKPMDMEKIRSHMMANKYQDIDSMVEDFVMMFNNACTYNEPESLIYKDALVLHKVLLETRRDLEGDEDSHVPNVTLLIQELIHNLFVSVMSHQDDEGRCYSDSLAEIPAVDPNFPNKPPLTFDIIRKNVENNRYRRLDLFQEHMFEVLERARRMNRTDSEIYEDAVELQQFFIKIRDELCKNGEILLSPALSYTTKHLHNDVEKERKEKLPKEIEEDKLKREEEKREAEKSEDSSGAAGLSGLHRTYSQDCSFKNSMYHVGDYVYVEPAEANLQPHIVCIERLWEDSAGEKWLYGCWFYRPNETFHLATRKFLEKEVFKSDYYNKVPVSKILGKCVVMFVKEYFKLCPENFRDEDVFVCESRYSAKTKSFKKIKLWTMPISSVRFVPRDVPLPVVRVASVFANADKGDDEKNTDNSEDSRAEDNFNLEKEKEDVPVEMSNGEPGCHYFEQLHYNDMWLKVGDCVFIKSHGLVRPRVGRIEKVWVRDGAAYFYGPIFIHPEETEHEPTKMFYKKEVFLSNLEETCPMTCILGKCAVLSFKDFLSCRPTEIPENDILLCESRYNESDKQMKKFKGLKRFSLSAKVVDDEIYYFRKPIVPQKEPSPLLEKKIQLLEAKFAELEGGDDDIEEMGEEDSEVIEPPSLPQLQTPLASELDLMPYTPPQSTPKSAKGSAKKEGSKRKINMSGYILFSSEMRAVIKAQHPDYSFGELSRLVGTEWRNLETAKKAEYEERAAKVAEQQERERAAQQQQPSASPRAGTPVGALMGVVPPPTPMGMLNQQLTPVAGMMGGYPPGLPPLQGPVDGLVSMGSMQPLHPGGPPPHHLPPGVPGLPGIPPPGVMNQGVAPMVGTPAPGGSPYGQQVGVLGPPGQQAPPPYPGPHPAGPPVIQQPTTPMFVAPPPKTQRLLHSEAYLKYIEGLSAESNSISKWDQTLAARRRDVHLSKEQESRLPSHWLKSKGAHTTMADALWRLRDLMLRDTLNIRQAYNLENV
Description for physchem: Solubility of the compound in phosphate buffered saline at pH 7.4 after 1 hr by CLND method

On to `Cc1cncc(-c2ccc(N[C@@H]3CCNC[C@H]3OCC3CCS(=O)(=O)CC3)c3[nH]c(=O)c(C)cc23)c1`, for which the Kd is greater than 100 µM in data set [1]; 2.51 µM on Protein polybromo-1; greater than 100 µM in data set [2]; 3.98 µM in data set [3]; 1.58 µM in data set [4]; greater than 100 µM in data set [5]. Further, the Kd is 25.1 µM on Peregrin; 0.631 µM in data set [6]; 2 µM in data set [7]; greater than 100 µM in data set [8]; 3.16 µM in data set [9]; 1 µM in data set [10]. The compound further gave a Kd in [11] of 1.26 µM.
`Cc1cncc(-c2cnc(N[C@@H]3CCNC[C@H]3OCC3CCCCC3)c3[nH]c(=O)c(C)cc23)c1` returned a chromatographic logD in data set [12] of 4. The dissociation constant (Kd) at Protein polybromo-1 was greater than 100 µM; in data set [2], greater than 100 µM; in data set [3] it was greater than 100 µM; in [4] it was 31.6 µM; at Peregrin, greater than 100 µM; in data set [6], 3.16 µM. Also, the equilibrium dissociation constant (Kd) was greater than 100 µM in [8], 2 µM in data set [10] and 15.8 µM in data set [11]. Besides, the kinetic solubility at 1 h in the data set “physchem” was 170 µM (≈ 78.5 µg/mL). Besides, the Papp at 3 h in [13] turned out to be 13.8 ×10⁻⁶ cm/s.
Regarding `Cc1cncc(-c2cnc(N[C@@H]3CCNC[C@H]3OCC3CCS(=O)(=O)CC3)c3[nH]c(=O)c(C)cc23)c1`, the IC50 was greater than 50.1 µM in data set [14]; greater than 50.1 µM in data set [15]; 15.8 µM in data set [16]; greater than 50.1 µM in data set [17]; 15.8 µM in data set [18]; 5.01 µM in data set [19]. The compound further showed a chromatographic logD in data set [12] of 1.6. Moreover, the solubility (kinetic) at 1 h in the data set “physchem” worked out at 179 µM (≈ 91.6 µg/mL). In addition, the Papp at 3 h in [13] is less than 0.3 ×10⁻⁶ cm/s.
